Each compound was assayed against recombinant Mcl-1 (residues 172-327) (Homo sapiens (Human), UniProt Q07820) (assay: Fluorescence polarization anisotropy competition assay (FITC-Bak or FITC-Bim BH3 peptide) with Mcl-1). Details: not given.
Chain of recombinant Mcl-1 (residues 172-327) (Q07820 172-327): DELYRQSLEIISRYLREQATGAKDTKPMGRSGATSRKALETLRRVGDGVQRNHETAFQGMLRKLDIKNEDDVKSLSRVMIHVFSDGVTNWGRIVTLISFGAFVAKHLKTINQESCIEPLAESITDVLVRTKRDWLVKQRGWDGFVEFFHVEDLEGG
Format: binding
For Cc1cc(OCCCc2c(C(=O)NCc3ccc(C(=O)O)o3)[nH]c3ccccc23)cc(C)c1Cl [I-57, 5-((3-(3-(4-chloro-3,5-dimethylphenoxy)propyl)-1H-indole-2-carboxamido)methyl)furan-2-carboxylic acid], the Ki was 51 to 100 nM.

Same assay, conditions: Table 2; Ki bins given in nM; FITC-Bak or FITC-Bim peptide competition; Ki converted from IC50; read-out: Ki for Inhibition of Mcl-1
Cc1cc(OCCCc2c(C(=O)N(Cc3ccc(C(F)(F)F)cc3)c3ccc(S(N)(=O)=O)cn3)[nH]c3ccccc23)cc(C)c1Cl [I-49, 3-(3-(4-chloro-3,5-dimethylphenoxy)propyl)-N-(5-sulfamoylpyridin-2-yl)-N-(4-(trifluoromethyl)benzyl)-1H-indole-2-carboxamide] gave a Ki of 101 to 299 nM. COC(=O)c1cccc(N2CCN(C(=O)c3[nH]c4cc(Cl)ccc4c3CCCOc3cc(C)c(Cl)c(C)c3)CC2)c1 [I-52, methyl 3-(4-(6-chloro-3-(3-(4-chloro-3,5-dimethylphenoxy)propyl)-1H-indole-2-carbonyl)piperazin-1-yl)benzoate] showed a Ki of 501 to 999 nM. Cc1cc(OCCCc2c(C(=O)NCCS(=O)(=O)NC(=O)Cc3ccc(Br)cc3)[nH]c3ccccc23)cc(C)c1Cl [I-53, N-(2-(N-(2-(4-bromophenyl)acetyl)sulfamoyl)ethyl)-3-(3-(4-chloro-3,5-dimethylphenoxy)propyl)-1H-indole-2-carboxamide] showed a Ki of 301 to 500 nM. Cc1cc(OCCCc2c(C(=O)NCCS(=O)(=O)NC(=O)CC34CC5CC(CC(C5)C3)C4)[nH]c3ccccc23)cc(C)c1Cl [I-54, N-(2-(N-(2-((3r,5r,7r)-adamantan-1-yl)acetyl)sulfamoyl)ethyl)-3-(3-(4-chloro-3,5-dimethylphenoxy)propyl)-1H-indole-2-carboxamide] gave a Ki of 501 to 999 nM. Cc1cc(OCCCc2c(C(=O)NCCS(=O)(=O)NC(=O)C34CC5CC(CC(C5)C3)C4)[nH]c3ccccc23)cc(C)c1Cl [I-55, N-(2-(N-((3r,5r,7r)-adamantane-1-carbonyl)sulfamoyl)ethyl)-3-(3-(4-chloro-3,5-dimethylphenoxy)propyl)-1H-indole-2-carboxamide] gave a Ki of 301 to 500 nM. Cc1cc(OCCCc2c(C(=O)NCc3ccc(C(=O)NCc4ccccc4C(F)(F)F)o3)[nH]c3ccccc23)cc(C)c1Cl [I-58, 3-(3-(4-chloro-3,5-dimethylphenoxy)propyl)-N-((5-((2-(trifluoromethyl)benzyl)carbamoyl)furan-2-yl)methyl)-1H-indole-2-carboxamide] gave a Ki of 101 to 299 nM. With Cc1cc(OCCCc2c(C(=O)NCc3ccc(C(=O)NS(C)(=O)=O)o3)[nH]c3ccccc23)cc(C)c1Cl [I-59, 3-(3-(4-chloro-3,5-dimethylphenoxy)propyl)-N-((5-((methylsulfonyl)carbamoyl)furan-2-yl)methyl)-1H-indole-2-carboxamide] the Ki was 101 to 299 nM. Cc1cc(OCCCc2c(C(=O)NCc3ccc(C(=O)NS(=O)(=O)c4ccccc4)o3)[nH]c3ccccc23)cc(C)c1Cl [I-60, 3-(3-(4-chloro-3,5-dimethylphenoxy)propyl)-N-((5-((phenylsulfonyl)carbamoyl)furan-2-yl)methyl)-1H-indole-2-carboxamide] gave a Ki of 101 to 299 nM. Compound Cc1cc(OCCCc2c(C(=O)NCc3ccc(C(=O)O)o3)[nH]c3c(-c4c(C)n[nH]c4C)cccc23)cc(C)c1Cl [I-62, 5-((3-(3-(4-chloro-3,5-dimethylphenoxy)propyl)-7-(3,5-dimethyl-1H-pyrazol-4-yl)-1H-indole-2-carboxamido)methyl)furan-2-carboxylic acid] has a Ki of under 50 nM. CCOC(=O)c1ccc(CNC(=O)c2c(CCCOc3cc(C)c(Cl)c(C)c3)c3cccc(-c4c(C)nn(C)c4C)c3n2C)o1 [I-65, ethyl 5-((3-(3-(4-chloro-3,5-dimethylphenoxy)propyl)-1-methyl-7-(1,3,5-trimethyl-1H-pyrazol-4-yl)-1H-indole-2-carboxamido)methyl)furan-2-carboxylate] gave a Ki of 301 to 500 nM.

Same assay, conditions: Table 2; Ki bins given in μM; FITC-Bak or FITC-Bim peptide competition; Ki converted from IC50; read-out: Ki for Inhibition of Mcl-1
Cc1cc(OCCCc2c(C(=O)NCc3ccccc3)[nH]c3ccccc23)cc(C)c1Cl [I-41, N-benzyl-3-(3-(4-chloro-3,5-dimethylphenoxy)propyl)-1H-indole-2-carboxamide] gave a Ki of 10000 to 50000 nM. Cc1cc(OCCCc2c(C(=O)NCCc3ccccc3)[nH]c3ccccc23)cc(C)c1Cl [I-42, 3-(3-(4-chloro-3,5-dimethylphenoxy)propyl)-N-phenethyl-1H-indole-2-carboxamide] gave a Ki of 10000 to 50000 nM. Cc1cc(OCCCc2c(C(=O)NCCc3c(C)n(C)c4ccccc34)[nH]c3ccccc23)cc(C)c1Cl [I-44, 3-(3-(4-chloro-3,5-dimethylphenoxy)propyl)-N-(2-(1,2-dimethyl-1H-indol-3-yl)ethyl)-1H-indole-2-carboxamide] gave a Ki of 1000 to 9990 nM. Compound Cc1cc(OCCCc2c(C(=O)NCc3ccc(Oc4ccccc4)cc3)[nH]c3ccccc23)cc(C)c1Cl [I-45, 3-(3-(4-chloro-3,5-dimethylphenoxy)propyl)-N-(4-phenoxybenzyl)-1H-indole-2-carboxamide] has a Ki of 10000 to 50000 nM. For Cc1cc(OCCCc2c(C(=O)N3CCN(c4ccccc4)CC3)[nH]c3ccccc23)cc(C)c1Cl [I-46, (3-(3-(4-chloro-3,5-dimethylphenoxy)propyl)-1H-indol-2-yl)(4-phenylpiperazin-1-yl)methanone], the Ki was 1000 to 9990 nM. Cc1cc(OCCCc2c(C(=O)N3CCC(N4CCOCC4)CC3)[nH]c3ccccc23)cc(C)c1Cl [I-47, (3-(3-(4-chloro-3,5-dimethylphenoxy)propyl)-1H-indol-2-yl)(4-morpholinopiperidin-1-yl)methanone] showed a Ki of 10000 to 50000 nM. With Cc1cc(OCCCc2c(C(=O)N3CCC(NC(=O)OC(C)(C)C)CC3)[nH]c3ccccc23)cc(C)c1Cl [I-48, tert-butyl (1-(3-(3-(4-chloro-3,5-dimethylphenoxy)propyl)-1H-indole-2-carbonyl)piperidin-4-yl)carbamate] the Ki was 1000 to 9990 nM. With CCOC(=O)c1ccc(N2CCN(C(=O)c3[nH]c4cc(Cl)ccc4c3CCCOc3cc(C)c(Cl)c(C)c3)CC2)cc1 [I-50, ethyl 4-(4-(6-chloro-3-(3-(4-chloro-3,5-dimethylphenoxy)propyl)-1H-indole-2-carbonyl)piperazin-1-yl)benzoate] the Ki was 10000 to 50000 nM. In the case of Cc1cc(OCCCc2c(C(=O)N3CCN(c4ccc(C(=O)O)cc4)CC3)[nH]c3cc(Cl)ccc23)cc(C)c1Cl [I-51, 4-(4-(6-chloro-3-(3-(4-chloro-3,5-dimethylphenoxy)propyl)-1H-indole-2-carbonyl)piperazin-1-yl)benzoic acid], the Ki is reported as 1000 to 9990 nM. Compound CCOC(=O)c1ccc(CNC(=O)c2[nH]c3ccccc3c2CCCOc2cc(C)c(Cl)c(C)c2)o1 [I-56, ethyl 5-((3-(3-(4-chloro-3,5-dimethylphenoxy)propyl)-1H-indole-2-carboxamido)methyl)furan-2-carboxylate] has a Ki of 1000 to 9990 nM. CCOC(=O)c1ccc(CNC(=O)c2[nH]c3c(-c4c(C)n[nH]c4C)cccc3c2CCCOc2cc(C)c(Cl)c(C)c2)o1 [I-61, ethyl 5-((3-(3-(4-chloro-3,5-dimethylphenoxy)propyl)-7-(3,5-dimethyl-1H-pyrazol-4-yl)-1H-indole-2-carboxamido)methyl)furan-2-carboxylate] gave a Ki of 10000 to 50000 nM. Cc1cc(OCCCc2c(C(=O)NCc3cccc(C(=O)NCc4ccccc4)c3)[nH]c3c(-c4c(C)n[nH]c4C)cccc23)cc(C)c1Cl [I-64, N-(3-(benzylcarbamoyl)benzyl)-3-(3-(4-chloro-3,5-dimethylphenoxy)propyl)-7-(3,5-dimethyl-1H-pyrazol-4-yl)-1H-indole-2-carboxamide] was tested, and the Ki was 10000 to 50000 nM.
